Literature values as cited in patent publication US20050272741A1, “Novel methods of treatment for Fontan patients with protein losing enteropathy” (priority 2004, published 2005).

Test system: mesenteric bed
Conditions: pretreatment with Viagra, high dose Norepinephrine

In the case of CCCc1nn(C)c2c(=O)[nH]c(-c3cc(S(=O)(=O)N4CCN(C)CC4)ccc3OCC)nc12 [Viagra, Sildenafil], the “Mesenteric relaxation / constriction of the mesenteric bed” value is listed as “even high dose Norepinephrine fails to constrict the mesenteric bed”.
